# In patent publication US6902881B2, “Compounds and methods for regulating cell differentiation” (priority 2000, dated 2005):
# Several values for one entry are separate records, joined by “and”; a condition that tells them apart may be missing. Equal values may be shown once.
# Legend:
# [1] = tested on: Normal Fibroblast (3T3-L1 fibroblasts); assay: Cellular triacyl glycerol (TAG) content, normal fibroblast; type: cell-based; details: 3T3-L1 fibroblasts with insulin
# Method: Expression of differentiation markers. Carcinoembryogenic antigen in cell supernatants collected each three days was assayed by standard ELISA determinations using an IMX assay for quantitative measurement of the antigen. Cellular triacyl glycerol content was measured spectrophotometrically by enzymatic hydrolysis and analysis of the amount of glycerol released using a standard assay, Triglyceride (INT) 10 (Sigma Diagnostics). […] The fluorescence is detected at 450 nm with an excitation of 365 nm, using a Jobin Ivon-Spex Fluoro Max-2 fluorimeter. The alkaline phosphatase activity detected was expressed in units of μmol/mg protein/min. These compounds also affect the timing for the fat accumulation. After 9 days of incubation with insulin and bovine pituitary extract, but without biliverdin, the fat droplets in the cells are small and scattered diffusely throughout the cell. These globules continue to enlarge to fill most of the cytoplasmic space by day 14. In contrast, by day 7 the cells incubated in the presence of biliverdin already contain large, grouped and prominent droplets. While the triacyl glycerol content increases in both HT 29 and liposarcoma cells, the fat droplets in HT 29 cells are smaller than those that fill the cytoplasm of the liposarcoma cells. 3T3-L1 fibroblasts differentiate into adipocytes in the presence of insulin (Table VII). In the absence of biliverdin, this hormone increases the triacylglycerol content of 3T3-L1 fibroblasts by 3-fold relative to control. When biliverdin is added, a progressively greater content of triacyl glycerol is achieved at day 9. The increase is dependent on the biliverdin concentration. At the highest concentration used, 4×10^−7 M, there is a 5.8-fold increase of triacyl glycerol content over that of the undifferentiated fibroblasts (Table VII). This almost doubles the amount in the cells incubated with differentiation medium alone and is nearly as high as observed with troglitazone. At a lower biliverdin concentration, 10^−8 M, there is a 3.5-fold increase compared to control values. Remarkably, the amounts of biliverdin required to achieve the effects on proliferation, cell cycle and differentiation marker up-regulation, i.e. 10^−7-10^−06 M, are the same as those needed to re-establish the capacity of embryos depleted of the tetrapyrrole by treatment with UV-light to form a dorsal axis.
# [2] = Photo transformation of biliverdin by UV irradiation of embryos (HPLC peak area); type: physicochemical, Xenopus laevis
# Method: The cytoplasmic yolk platelet fraction that was photo transformed by UV light was identified in extracts of about 250 embryos irradiated with 366 nm UV light. The chromatogram of irradiated embryo extracts was compared to that of the non-irradiated ones to identify the photo transformed fraction. Once the retention time of the UV sensitive fraction was determined, the parent chemical species was isolated from control egg extracts. To confirm its UV sensitivity, an aliquot of the pertinent HPLC fraction in 44% acetonitrile and 3 mM ammonium acetate, pH 4.5, was irradiated in a cuvette in a Varian-Cary Bio 50 spectrophotometer at 366 nm. The pH was chosen to approximate that of intact yolk platelets. The wavelength was selected on the basis of the absorption spectra of the target fraction. The absorbance change was monitored at 375 nm. […]
# After UV irradiation, a set of embryos from each group were collected, dejellied with 2% L-cysteine, 0.16M NaOH and washed extensively in 20% Steimberg's buffer. […] The bilins and retinoids in each batch were extracted, separated and analyzed as described. […] The gross morphological appearance of each individual embryo was evaluated by light microscopy. The developmental teratology characteristic of the “UV syndrome,” was scored by standard criteria and categorized into the five groups comprising the “index of axis deficiency”. […]
# [3] = tested on: thyroid cancer (Th) cells; assay: Proliferation of thyroid carcinoma cells; type: cell-based, human
# [4] = tested on: retinoid signaling system (RAR or RXR); assay: Use of the retinoid signaling system
compound,measurement,setting,value
"C=CC1=C(C)/C(=C/C2=NC(=C\c3[nH]c(/C=C4\NC(=O)C(C)=C4C=C)c(C)c3CCC(=O)O)/C(CCC(=O)O)=C2C)NC1=O [Biliverdin, biliverdin IXα]",increase of triacyl glycerol content over undifferentiated fibroblasts,"[1]; biliverdin 4×10^−7 M, day 9",5.8 fold
same,increase of triacyl glycerol content compared to control values,[1]; biliverdin 10^−8 M,3.5 fold
same,share of the 23.3 min peak area photo transformed by UV irradiation,"[2]; embryos irradiated with 366 nm UV light, typical experiment",> 67%
same,decrease of content after UV irradiation,[2]; pre-cleavage embryos exposed to 358 nm for 10 min,50%
same,division slower than control,[3],4.7 times
same,time until proliferation ceases,[3],six days and 6 days
same,recovery of proliferative rate,[3]; 12-day observation period,did not recover its proliferative rate at all
same,use of the retinoid signaling system (RAR or RXR),[4],does not use
